Assay results as given in patent publication US11306094B2, “Stable formulations of 5,10-methylene-(6R)-tetrahydrofolic acid” (MERCK & CIE, priority 2016, dated 2022).
Counter-ions that a name gives are not always drawn. Like-named read-outs stand apart in the source and are kept apart here. Each block holds one compound with its values, some of them ahead of it.

Experiments:
[1] = physiological common salt solution, +25° C., cited from earlier work
[2] = Long-term stability of hemisulfate salt, HPLC content; assay type: physicochemical; settings: salt stored in air, 25° C./60% rh
Method: (§1) (b) Stability in 85% Ethanol at Room Temperature (6R)-5,10-CH2-THF hemisulfate salt (3.01 g) was dispersed in 100 ml 85% EtOH at room temperature and stirred for 5 h, then filtered and dried at 30° C. and 8 mbar for 12 hours (over night). […] (c) Stability at High Temperature/Low Pressure (6R)-5,10-CH2-THF hemisulfate salt (2.17 g) was placed in a drying chamber at 65° C. and 8 mbar for 21 h. […] (d) Long-Term Stability of (6R)-5,10-CH2-THF Hemisulfate Salt and Pharmaceutical Composition Thereof In order to determine the long-term stabilities of (6R)-5,10-CH2-THF hemisulfate salt, the salts were stored in air at 25° C. and at 60% relative humidity. The content of (6R)-5,10-CH2-THF hemisulfate salt remaining was measured by HPLC at periodic intervals and is given by comparison with the initial value (% rel.).

[3] = Comparative stability hemisulfate versus sulfate salt (Example 4-1); assay type: physicochemical
Method: Stability studies were performed as in the examples above. The conditions for the studies are provided with each data set provided. Some of the data in this example is from previous examples herein, but are reproduced here to provide some kind of a side-by-side nature of the presentation of the results.

Clinical safety = assay type: in vivo; settings: patients, doses of up to 200 mg/m^2
[4] = Crystal form stability by XRPD (85% ethanol; high temperature/low pressure); assay type: physicochemical
Method: as §1

[5] = Suspension equilibration stability; assay type: physicochemical
Text: (a) Suspension equilibration of (6R)-5,10-CH2-THF hemisulfate salt as starting material at temperatures other than room temperature in a variety of solvents and mixture are summarized in Table 10: […]

[6] = Phase I/II study ISO-CC-002, pharmacokinetics/pharmacodynamics versus Levoleucovorin; assay type: in vivo; settings: compared to Levoleucovorin, 32 colon cancer patients
Method: (b) In a single-blinded, randomized phase I/II study (ISO-CC-002) performed on 32 patients diagnosed with colon cancer the pharmacokinetic and pharmacodynamic properties of (6R)-5,10-CH2-THF hemisulfate compared to Levoleucovorin in tumor tissue, adjacent mucosa and blood plasma were investigated. The study was performed at the Sahlgrenska University Hospital in Goteborg, Sweden. […] The concentrations of methylenetetrahydrofolate and tetrahydrofolate in both tumor and adjacent mucosa were also much higher after administration of (6R)-5,10-CH2-THF hemisulfate than those obtained after administration of Levoleucovorin.

[7] = Content of degradation product 10-formyltetrahydrofolic acid in sulfate salt, HPLC; assay type: physicochemical
Method: (b) Content of the degradation product 10-formyl-(6R)-tetrahydrofolic acid (6R)-5,10-CH2-THF sulfate salt was prepared according to literature procedures (EP 0 537 492 B1) and stored for 15 months at −20° C. Subsequently, samples of the product were stored at 5° C. resp. at 25° C. and 60% relative humidity resp. at 40° C. and 75% relative humidity. The content of 10-formyltetrahydrofolic acid, a major degradation product, was measured by HPLC at periodic intervals and disclosed as absolute values (% w/w).

[8] = Long-term stability of sulfate salt, HPLC content; assay type: physicochemical
Method: In order to compare the long-term stabilities of (6R)-5,10-CH2-THF hemisulfate salt to the long-term stabilities of (6R)-5,10-CH2-THF sulfate salt prepared according to EP 0 537 492 B1, stability data for (6R)-5,10-CH2-THF sulfate salt has been generated at various temperatures and humidities. (a) Stability of (6R)-5,10-CH2-THF Sulfate (6R)-5,10-CH2-THF sulfate salt was prepared according to literature procedures (EP 0 537 492 B1) and stored for 15 months at −20° C. Subsequently, samples of the product were stored at 5° C. resp. at 25° C. and 60% relative humidity resp. at 40° C. and 75% relative humidity. The content of (6R)-5,10-CH2-THF sulfate salt remaining in the sample was measured by HPLC at periodic intervals. The content of (6R)-5,10-CH2-THF sulfate was compared to the initial value at the time of preparation (% rel.).

[9] = after 15 months at −20° C., then 5° C., 0 months
[10] = after 15 months at −20° C., then 5° C., 6 months
[11] = after 15 months at −20° C., then 25° C./60% rh, 0 months
[12] = after 15 months at −20° C., then 25° C./60% rh, 6 months
[13] = after 15 months at −20° C., then 40° C./75% rh, 0 months
[14] = after 15 months at −20° C., then 40° C./75% rh, 6 months

SMILES: Nc1nc2c(c(=O)[nH]1)N1CN(c3ccc(C(=O)N[C@@H](CCC(=O)O)C(=O)O)cc3)C[C@H]1CN2 (mixture of isomers) [5,10-methylene-(6R,S)-tetrahydrofolic acid]
- % relative stability ([1]; with the exclusion of air, 0 hours): 100.0%
- % relative stability ([1]; with the exclusion of air, 4.0 hours): 58.0%
- % relative stability ([1]; with the exclusion of air, 24.0 hours): 38.0%
- % relative stability ([1]; with the exclusion of air, 26.0 hours): 18.0%
- % relative stability ([1]; with the exclusion of air, 48.0 hours): 8.0%
- % relative stability ([1]; without the exclusion of air, 0 hours): 100.0%
- % relative stability ([1]; without the exclusion of air, 4.0 hours): 84%
- % relative stability ([1]; without the exclusion of air, 24.0 hours): 12.0%
- % relative stability ([1]; without the exclusion of air, 26.0 hours): 8.0%
- % relative stability ([1]; without the exclusion of air, 48.0 hours): 6.0%

- (6R)-5,10-CH2—THF hemisulfate (% rel) ([2]; 0 months): 100.0 % rel
- (6R)-5,10-CH2—THF hemisulfate (% rel) ([2]; 3 months, listed as (6R)-5,10-CH2—THF hemisulfate (batch 1)): 99.7 % rel
- (6R)-5,10-CH2—THF hemisulfate (% rel) ([2]; 3 months, listed as (6R)-5,10-CH2—THF hemisulfate (batch 2)): 99.9 % rel
- (6R)-5,10-CH2—THF hemisulfate (% rel) ([2]; 3 months, listed as (6R)-5,10-CH2—THF hemisulfate (batch 3)): 99.5 % rel
- (6R)-5,10-CH2—THF hemisulfate (% rel) ([2]; 6 months): 99.5 % rel
- (6R)-5,10-CH2—THF hemisulfate (% rel) ([2]; 6 months, listed as (6R)-5,10-CH2—THF hemisulfate (batch 2)): 99.9 % rel
- (6R)-5,10-CH2—THF hemisulfate (% rel) ([2]; 9 months, listed as (6R)-5,10-CH2—THF hemisulfate (batch 1)): 99.6 % rel
- (6R)-5,10-CH2—THF hemisulfate (% rel) ([2]; 9 months, listed as (6R)-5,10-CH2—THF hemisulfate (batch 2)): 100.0 % rel
- (6R)-5,10-CH2—THF hemisulfate (% rel) ([2]; 9 months, listed as (6R)-5,10-CH2—THF hemisulfate (batch 3)): 99.4 % rel
- (6R)-5,10-CH2—THF hemisulfate (% rel) ([2]; 12 months, listed as (6R)-5,10-CH2—THF hemisulfate (batch 1)): 99.2 % rel
- (6R)-5,10-CH2—THF hemisulfate (% rel) ([2]; 12 months, listed as (6R)-5,10-CH2—THF hemisulfate (batch 2)): 99.7 % rel
- (6R)-5,10-CH2—THF hemisulfate (% rel) ([2]; 12 months, listed as (6R)-5,10-CH2—THF hemisulfate (batch 3)): 99.1 % rel
- (6R)-5,10-CH2—THF hemisulfate (% rel) ([2]; 18 months, listed as (6R)-5,10-CH2—THF hemisulfate (batch 1)): 99.2 % rel
- (6R)-5,10-CH2—THF hemisulfate (% rel) ([2]; 18 months, listed as (6R)-5,10-CH2—THF hemisulfate (batch 2)): 99.4 % rel
- (6R)-5,10-CH2—THF hemisulfate (% rel) ([2]; 18 months, listed as (6R)-5,10-CH2—THF hemisulfate (batch 3)): 99.0 % rel
- (6R)-5,10-CH2—THF hemisulfate (% rel) ([2]; 24 months, listed as (6R)-5,10-CH2—THF hemisulfate (batch 1)): 99.4 % rel
- (6R)-5,10-CH2—THF hemisulfate (% rel) ([2]; 24 months, listed as (6R)-5,10-CH2—THF hemisulfate (batch 2)): 99.4 % rel
- (6R)-5,10-CH2—THF hemisulfate (% rel) ([2]; 24 months, listed as (6R)-5,10-CH2—THF hemisulfate (batch 3)): 99.0 % rel
- (6R)-5,10-CH2—THF hemisulfate (% rel) ([2]; 36 months, listed as (6R)-5,10-CH2—THF hemisulfate (batch 1)): 98.5 % rel
- (6R)-5,10-CH2—THF hemisulfate (% rel) ([2]; 36 months, listed as (6R)-5,10-CH2—THF hemisulfate (batch 2)): 99.0 % rel
- stability compared with the sulfate salt ([3]; 3 batches, various temperatures): remarkably more stable
- stability at elevated temperature ([3]; +40° C. and relative humidity of 75%): excellent stability
- X-ray pattern of crystal form Type 1 (XRPD) ([4]; drying chamber 65° C. and 8 mbar for 21 h): remained unchanged
- X-ray pattern of crystal form Type 1 (XRPD) ([4]; stirred in 85% EtOH at room temperature for 5 h): remained unchanged
- Observation (suspension equilibration stability) ([5]; 2-PrOH with ~2 mM L-ascorbic acid, 40° C., 3 d): No change
- Observation (suspension equilibration stability) ([5]; AcOH saturated with L-ascorbic acid, 50° C., 1 d): No change
- Observation (suspension equilibration stability) ([5]; AcOH saturated with L-ascorbic acid, 50° C., 5 d): No change
- Observation (suspension equilibration stability) ([5]; H2O, 5° C., 6 d): No change
- Observation (suspension equilibration stability) ([5]; MeCN saturated with L-ascorbic acid, 50° C., 5 d): No change
- Observation (suspension equilibration stability) ([5]; MeOH/formic acid 1:1, 50° C., 2 h): No change
- Observation (suspension equilibration stability) ([5]; PEG4500/EtOH 1:9 saturated with L-ascorbic acid, 50° C., 7 d): No change
- Observation (suspension equilibration stability) ([5]; THF with ~2 mM L-ascorbic acid, 40° C., 3 d): No change
- Observation (suspension equilibration stability) ([5]; formic acid/THF 1:3, 10-20° C., 6 d): No change
- concentrations of methylenetetrahydrofolate and tetrahydrofolate in tumor and adjacent mucosa [6]: much higher
- exposure and peak plasma concentrations of methylenetetrahydrofolate [6]: substantially greater
SMILES: Nc1nc2c(c(=O)[nH]1)N1CN(c3ccc(C(=O)N[C@@H](CCC(=O)O)C(=O)O)cc3)C[C@H]1CN2 [(6R)-5,10-CH2-THF hemisulfate salt, N-[4-[(6aR)-3-amino-1,2,5,6,6a,7-hexahydro-1-oxoimidazo[1,5-f]pteridin-8(9H)-yl]benzoyl]-L-glutamic acid]
- safety (Clinical safety): safe

- 10-formyltetrahydrofolic acid (% w/w) [7, 9]: 1.37 % w/w
- 10-formyltetrahydrofolic acid (% w/w) [7, 10]: 1.47 % w/w
- 10-formyltetrahydrofolic acid (% w/w) [7, 11]: 1.37 % w/w
- 10-formyltetrahydrofolic acid (% w/w) [7, 12]: 1.89 % w/w
- 10-formyltetrahydrofolic acid (% w/w) [7, 13]: 1.37 % w/w
- 10-formyltetrahydrofolic acid (% w/w) [7, 14]: 2.36 % w/w
- 10-formyltetrahydrofolic acid (% w/w) ([7]; −20° C., 0 months): 0.53 % w/w
- 10-formyltetrahydrofolic acid (% w/w) ([7]; −20° C., 15 months): 1.37 % w/w
- (6R)-5,10-CH2—THF sulfate (% rel.) [8, 9]: 98.7 % rel.
- (6R)-5,10-CH2—THF sulfate (% rel.) [8, 10]: 97.3 % rel.
- (6R)-5,10-CH2—THF sulfate (% rel.) [8, 11]: 98.7 % rel.
- (6R)-5,10-CH2—THF sulfate (% rel.) [8, 12]: 95.5 % rel.
- (6R)-5,10-CH2—THF sulfate (% rel.) [8, 13]: 98.7 % rel.
- (6R)-5,10-CH2—THF sulfate (% rel.) [8, 14]: 95.0 % rel.
- (6R)-5,10-CH2—THF sulfate (% rel.) ([8]; −20° C., 0 months): 100.0 % rel.
- (6R)-5,10-CH2—THF sulfate (% rel.) ([8]; −20° C., 15 months): 98.7 % rel.
SMILES: Nc1nc2c(c(=O)[nH]1)N1CN(c3ccc(C(=O)N[C@@H](CCC(=O)O)C(=O)O)cc3)C[C@H]1CN2 [(6R)-5,10-CH2-THF sulfate salt, 5,10-methylene-(6R)-tetrahydrofolic acid]
